How the values were obtained:
Assay type in all cases: cell-based
Fusarium solani 2 (FS2) = experiment: Antifungal MIC (Example 4); settings: Fusarium solani 2; peptides; Tables 4 and 5
Experimental: (§1) The inventor expanded the work conducted in Example 1 by testing an expanded library of peptides derived from either apolipoprotein B or apolipoprotein E in order to further evaluate polypeptides in accordance with the invention. These experiments were conducted using the following fungal species:
(§2) FS1-FS4 were obtained from Bristol PHLS (British Public Health Laboratory Service UK). Aspergillus fumigatus 293 is publicly available as culture collection strain NCPF7367 (National Collection of Pathogenic Fungi Public Health Laboratory, Mycological Reference Laboratory Myrtle Road, Kingsdown, Bristol BS2 8EL) The Candida albicans was a clinical isolate obtained by standard means.
(§3) The methods used to determine, the IC50 values for each peptide were as described in the Example 1.

[1] = test system: Aspergillus fumigatus AF293 (NCPF7367); experiment: microbe, parasite or virus in culture; settings: Aspergillus fumigatus 293; peptides; Tables 4 and 5
Experimental: Four compounds were supplied as an aqueous solution, 400 μM. Serial dilutions of each test peptide were prepared in addition to a control, which was a conventional antifungal drug, Amphoteracin B. Amphteracin B is obtained from Invitrogen or Melford laboratories.
Initial testing of the peptides was carried out against the following organisms: • 1) Aspergillus fumigatus AF293 (culture collection strain NCPF7367) • 2) Candida albicans 6862 (clinical isolate) • 3) Fusarium spp 5889 (clinical isolate) • 4) Fusarium spp 6507 (clinical isolate) • 5) Aspergillus terreus (clinical isolate) • 6) Aspergillus niger (clinical isolate) • 7) Staphylococcus aureus (Oxford strain, which is a standard reference strain used in MIC testing)
The bacterium S. aureus was tested with each of the peptides as a control. A suspension of each organism in an appropriate growth medium was added to the, dilutions of the peptides in order to give concentration ranges of 40 μM to 0.04 μM for each of the peptides, and 64-0.025 μg/ml for amphotericin B. Fungal strains were tested in RPMI media. RPMI is standard Roswell Park Memorial Institute medium (Morton, H. C., (1970) A survey of Commercially Available Tissue Culture Media. In Vitro 6: 89-108).
The final inoculum for S. aureus was 5×10^4 cfu/ml. The final inoculum for C. albicans was 2×10^3 cfu/ml. The final inoculum for Aspergillus fumigatus and for Fusarium spp was 2×10^4 cfu/ml.
Candida and S. aureus plates were read after 24 hrs incubation and the Aspergillus and Fusarium strains read after 48 hrs. The MIC was taken as the lowest drug or compound concentration that caused >80% reduction in growth compared with a drug free control.
Aspergillus fumigatus 293 (AF); and
as §2, with “means. […]” for “means.”

[2] = test system: Candida albicans (CA), clinical isolate; experiment: Antifungal MIC (Example 4); settings: peptides, Tables 4 and 5
Experimental: as §1, §2, §3

Fusarium solani 1 (FS1) = experiment: Antifungal MIC (Example 4); settings: Fusarium solani 1; peptides; Tables 4 and 5
Experimental: as §1, §2, §3

Fusarium solani 4 (FS4) = experiment: Antifungal MIC (Example 4); settings: Fusarium solani 4; peptides; Tables 4 and 5
Experimental: as §1, §2, §3

Fusarium solani 3 (FS3) = experiment: Antifungal MIC (Example 4); settings: Fusarium solani 3; peptides; Tables 4 and 5
Experimental: as §1, §2, §3

Sequence	MIC values (>80% reduction) FS2 (Fusarium solani 2 (FS2))	MIC values (>80% reduction) AF [1]	MIC values (>80% reduction) CA [2]	MIC values (>80% reduction) FS1 (Fusarium solani 1 (FS1))	MIC values (>80% reduction) FS4 (Fusarium solani 4 (FS4))	MIC values (>80% reduction) FS3 (Fusarium solani 3 (FS3))
ARKARKRAAARKARKRAA (Artificial polypeptide designated MU 2) [MU_2, 77]	>40 µM	>40 µM	>40 µM	>40 µM	>40 µM	>40 µM
DRKDRKRDDDRKDRKRDD (Artificial polypeptide designated MU 3) [MU_3, 78]	>40 µM	>40 µM	>40 µM	>40 µM	>40 µM	>40 µM
ERKERKREEERKERKREE (Artificial polypeptide designated MU 1) [MU_1, 76]	>40 µM	>40 µM	>40 µM	>40 µM	>40 µM	>40 µM
GRKGRKRGGGRKGRKRGG (Artificial polypeptide designated MU 17) [MU_17, 84]	>40 µM	>40 µM	>40 µM	>40 µM	>40 µM	>40 µM
HRKHRKRHHHRKHRKRHH (Artificial polypeptide designated MU 19) [MU_19]	>40 µM	>40 µM	>40 µM	20 µM	10 µM	40 µM
IRKIRKRIIIRKIRKRII (Artficial polypeptide designated MU 8) [MU_8]	20 µM	>40 µM	>40 µM	40 µM	40 µM	20 µM
LRKLRKRLLLRKLRKRWW (Artificial polypeptide designated MU 112) [MU_112, 24]	2.5 µM	>40 µM	>40 µM	2.5 µM	5 µM	2.5 µM
LRKLRKRLLRLRKLRKRLLR (Artificial polypeptide designated MU 82) [MU_82, 21]	2.5 µM	>40 µM	>40 µM	2.5 µM	10 µM	2.5 µM
MRKMRKRMMMRKMRKRMM (Artificial polypeptide designated MU 16) [MU_5]	20 µM	>40 µM	>40 µM	10 µM	40 µM	20 µM
NRKNRKRNNNRKNRKRNN (Artificial polypeptide designated MU 11) [MU_11, 80]	>40 µM	>40 µM	>40 µM	>40 µM	>40 µM	40 µM
PRKPRKRPPPRKPRKRPP (Artificial polypeptide designated MU 20) [MU_20, 86]	>40 µM	>40 µM	>40 µM	>40 µM	>40 µM	>40 µM

Source: US8916516B2, “Treatment of fungal and/or protist infections” (AI2 Limited, priority 2005, dated 2014)
